{
  "source": "paper PMC8761912",
  "about": "“Cryptosporidium parvum Pyruvate Kinase Inhibitors With in vivo Anti-cryptosporidial Efficacy” (Frontiers in Microbiology, 2022)",
  "key": {"C. parvum [1]": {"tested_on": "C. parvum", "design": "method as in Li et al., 2019", "conditions": "reported value; ref Li et al., 2019; read-out: in vitro anti-Cryptosporidium EC50; cited from earlier work"}, "C. parvum [2]": {"tested_on": "C. parvum", "experiment": "In vivo efficacy in C. parvum-infected IFN-γ KO mice, fecal oocysts load by qPCR", "design": "species or system Cryptosporidium parvum", "conditions": "paromomycin 1,000 mg/kg oral once daily from day 3 PI", "experimental": "(§1) Eight weeks old male interferon-gamma knockout (IFN-γ KO) mice (B6.129S7-Ifng^TM1Ts/J) were purchased from The Jackson Laboratory, United States, and allowed to quarantine and acclimatize for 1 week before the commencement of experiments. Before the start of the infection assays in mice, the tolerability of each inhibitor was determined by daily oral gavage with varying dosages (0–10 mg/kg mouse bodyweight) in groups of mice (n = 3 mice per group) for 8 days. During this period, mice were monitored daily for any changes in physical and mental activity, feeding, body weight, body temperature, fur condition, and body posture. […] Mice were divided into infected and uninfected groups (n = 3 mice per group) and each individual mouse was housed in a separate cage lined with sterile gauze bedding. Each mouse from the infected group was infected by oral gavage administration of 10^4 C. parvum AUCP-1 isolate oocysts suspended in 50 μl of PBS. Beginning day 3 PI, groups of mice were orally treated with CpPyK inhibitors (at the specified doses), sham (100 μl of 5% DMSO in PBS), or 1,000 mg/kg paromomycin (in sterile water) once daily for a total of 8 days. Fecal pellets were collected daily in individual sterile 15 ml tubes, and submerged in an equivalent volume of PBS containing a cocktail of penicillin (100 units/ml), streptomycin (100 μg/ml), chloramphenicol (34 μg/ml), and amphotericin (0.25 μg/ml), and stored at 4°C until use. Three independent replicate infection assays were performed. Mice were sacrificed at day 11 PI, and 5 cm of the distal small intestine just anterior to the cecum was resected and submerged in 10% neutral buffered formalin and submitted for histopathological processing in the Comparative Biosciences Histology Laboratory at the University of Illinois at Urbana-Champaign. Briefly, intestinal tissues preserved in 10% neutral buffered formalin were washed in 70% ethanol, embedded in paraffin, and sectioned transversely at a thickness of 5 μm. Sections were stained with hematoxylin and eosin. The slides were imaged using a Zeiss microscope fitted with a color camera.\nDNA was isolated from 250 mg of feces collected from individual mice using the QIAamp® PowerFecal® Pro DNA kit (Qiagen, United States) following the manufacturer’s protocol. Oocysts load per gram of feces was measured by quantitative real time PCR (qPCR) analysis of the Cp18s rRNA gene (GenBank accession number AF164102) using gene-specific primers: 5′-[…]-3′ (Forward) and 5′-[…]-3′ (Reverse), described previously ([Parr et al., 2007]). To generate a quantification standard curve, fecal samples were obtained from uninfected mice and spiked with 10^8 C. parvum oocysts per gram of feces, followed by isolation of DNA as described above. Ten-fold serial dilutions of the extracted DNA were made and used as quantification standards for qPCR. C. parvum oocysts load quantification for the test mice was performed using DNA samples from the infected feces. Each 20 μl qPCR reaction contained 10 μl of PowerUp™ SYBR™ Green Master Mix (Applied Biosystems, United States), 500 nM of each primer, and 2 μl of DNA template. After 2 min of initial denaturation at 95°C, 40 cycles of denaturation at 95°C for 15 sec and annealing/extension at 60°C for 1 min were performed in a 7500 Real-Time PCR System (Applied Biosystems, United States). The oocyst load per gram of feces was derived by the 7500-system software using the generated quantification standard curves (Supplementary Figure 1)."}, "C. parvum [3]": {"tested_on": "C. parvum", "experiment": "Histopathology of distal small intestine of C. parvum-infected IFN-γ KO mice", "type": "in vivo, Cryptosporidium parvum", "conditions": "1,000 mg/kg daily oral from day 3 PI, sacrificed day 11 PI", "experimental": "as §1"}},
  "data": [
    {"smiles": "NC[C@@H]1O[C@H](O[C@H]2[C@@H](O)[C@H](O[C@@H]3[C@@H](O)[C@H](N)C[C@H](N)[C@H]3O[C@H]3O[C@H](CO)[C@@H](O)[C@H](O)[C@H]3N)O[C@@H]2CO)[C@H](N)[C@@H](O)[C@@H]1O", "note": "[Paromomycin, reference compound]", "values": [
      {"measurement": "EC50", "setting": "C. parvum [1]", "value": 450, "unit": "µM"},
      {"measurement": "oocysts load by day 9 PI vs other treatments and untreated group", "setting": "C. parvum [2]", "value": "significantly (P < 0.05) lower oocysts loads"},
      {"measurement": "intestinal pathology (histology, distal small intestine)", "setting": "C. parvum [3]", "value": "notably reduced pathological changes"}
    ]}
  ]
}
